# Source: article PMC9503024, “Structure and Biological Properties of Ribosome-Inactivating Proteins and Lectins from Elder (Sambucus nigra L.) Leaves” (Toxins, 2022)
# What was measured:
# Conditions in all cases: human erythrocytes; room temperature, 1 h; serial dilutions
# nigrin l = nigrin l (Sambucus nigra, UniProt Q8GT32)
# SNAld = SNAld (Sambucus nigra, UniProt Q8GTA6)
# SNAlm = SNAlm (Sambucus nigra, UniProt Q8GTA5)
# SNAlm, sequence (Q8GTA5 57-316 limits assumed): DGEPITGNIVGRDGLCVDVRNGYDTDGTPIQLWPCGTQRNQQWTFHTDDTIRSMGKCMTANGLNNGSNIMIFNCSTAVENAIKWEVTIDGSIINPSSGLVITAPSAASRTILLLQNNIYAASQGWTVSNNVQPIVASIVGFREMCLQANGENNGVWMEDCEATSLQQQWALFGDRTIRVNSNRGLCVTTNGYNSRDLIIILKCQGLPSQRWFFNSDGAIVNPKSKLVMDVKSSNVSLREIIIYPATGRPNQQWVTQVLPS
# SNAld, sequence (Q8GTA6 entry or part of it): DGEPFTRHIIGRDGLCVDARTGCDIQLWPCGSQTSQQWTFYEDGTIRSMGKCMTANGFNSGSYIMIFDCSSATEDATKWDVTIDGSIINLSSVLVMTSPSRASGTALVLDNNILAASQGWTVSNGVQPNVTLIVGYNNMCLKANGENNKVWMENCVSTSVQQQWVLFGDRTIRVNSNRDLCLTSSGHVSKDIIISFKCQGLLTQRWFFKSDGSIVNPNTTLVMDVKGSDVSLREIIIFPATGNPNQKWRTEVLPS
# nigrin l, sequence (Q8GT32 26-282 limits assumed): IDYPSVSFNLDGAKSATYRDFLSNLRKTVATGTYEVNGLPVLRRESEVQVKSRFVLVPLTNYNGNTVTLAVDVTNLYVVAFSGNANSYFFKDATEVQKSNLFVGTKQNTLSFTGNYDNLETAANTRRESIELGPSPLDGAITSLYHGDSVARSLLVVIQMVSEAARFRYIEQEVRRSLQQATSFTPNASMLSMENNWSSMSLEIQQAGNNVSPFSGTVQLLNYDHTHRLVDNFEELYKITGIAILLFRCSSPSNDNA
# nigrin l, sequence (Q8GT32 298-563 limits assumed): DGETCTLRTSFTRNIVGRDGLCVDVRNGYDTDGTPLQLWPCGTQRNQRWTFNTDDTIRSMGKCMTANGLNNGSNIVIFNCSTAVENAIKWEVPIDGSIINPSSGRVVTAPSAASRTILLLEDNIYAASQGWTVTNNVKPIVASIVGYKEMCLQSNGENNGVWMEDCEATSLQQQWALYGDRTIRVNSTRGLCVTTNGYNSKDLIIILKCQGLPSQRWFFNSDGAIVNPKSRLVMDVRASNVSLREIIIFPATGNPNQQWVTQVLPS
Compound,Nigrin l (nigrin l) [mM],SNAld (SNAld) [mM],SNAlm (SNAlm) [mM]
OC[C@H]1OC(O)[C@H](O)[C@@H](O)[C@H]1O (stereo partly drawn) [D-galactose],50,100,6.25
"OC[C@H]1O[C@@H](O[C@H]2[C@H](O)[C@@H](O)C(O)O[C@@H]2CO)[C@H](O)[C@@H](O)[C@H]1O (stereo partly drawn) [Lactose, β-D-galactopyranosyl-(1→4)-D-glucose]",12.5,25,1.56
